# Laboratory results published in patent EP0189596A1, “Benzofuran and benzothiophene derivatives” (SHIONOGI & CO., LTD., priority 1984, dated 1986).
# What was measured:
# [1] = Bioassay for Diuretic Effect on Mice; type: in vivo, Slc:ddy mice; settings: Mouse, oral, Dose (mg) 30, urine collected for 4 hours, percentage to control (100%)
# Procedure: (§1) I . Test Method: • Experiments with rats and mice were carried out according to Assay Programs #27-104 and #27-106, respectively. The outline is as follows.
# Slc:ddy 5-week-old mice (female, about 20g body-weight each) were used for the test. From the morning of the day before the test day, the mice were fasted but water. In the morning of the test day, a sample which was prepared by suspending or dissolving a test compound in 2% gum arabic was orally administered to each at 30 ml/kg. On the other hand, mere by 2% gum arabic was orally administered to the control group at 30 ml/kg. Immediately after the administration, 5 mice employed were put in a plastic cage for the metabolic tests and their urine samples were collected for 4 hours. The cumulative urine volume, urinary sodium (Na^+), and urinary potassium (K^+) were quantitatively determined. II. Test Results
# (§2) Results regarding the urine volume are shown by percentages to control (100%). Also, results regarding the urinary sodium (Na^+) and the urinary potassium (K^+) are shown by percentages to control (100%).
# [2] = Bioassay for Diuretic Effect on Rats; type: in vivo, SLc:SD rats; settings: Rat, oral, percentage to control (100%)
# Procedure: as §1
# SLc:SD 8-week-old rats (male, about 250g body-weight each) were used for the test. A few lumps of sugar in place of ordinary diets were given on the morning of the day before the test day and 5% glucose solution was given orally at a rate of 20 ml/kg in the evening (approximately at 4 p.m.) of the […]. In the morning for the test, a sample which was prepared by suspending or dissolving a test compound in 2X gum arabic was orally administered to each at a dose of 20 ml/kg. On the other hand, mere by 2% gum arabic was orally administered to the control group at 20 ml/kg. Immediately after the administration, the test animals were put in a plastic cage for the metabolic tests and their urine samples were collected for 5 hours. The cumulative urine volume, urinary sodium (Na^+), and urinary potassium (K^+) were quantitatively determined.
# as §2
# [3] = Dose (mg) 50, urine collected for 5 hours
# [4] = Dose (mg) 10, urine collected for 5 hours
Compound,Urinary K^+ (%) [1],Urinary Na^+ (%) [1],Urine Vol. (%) [1],"Urinary K^+ (%) [2, 3]","Urinary Na^+ (%) [2, 3]","Urine Vol. (%) [2, 3]","Urinary K^+ (%) [2, 4]","Urinary Na^+ (%) [2, 4]","Urine Vol. (%) [2, 4]"
CC(C(=O)c1cc2c(c(Cl)c1Cl)OC(C(=O)O)C2)=C1SCCS1 (stereo not drawn) [Example 3],304※ %,1370※ %,270※ %,217※ %,291※ %,153※ %,–,–,–
CSC(SC)=C(C)C(=O)c1cc2c(c(C)c1Cl)OC(C(=O)O)C2 (stereo not drawn) [Example 14],330※ %,743※ %,296※ %,–,–,–,–,–,–
"CSC(=CC(=O)c1cc2c(c(Cl)c1Cl)OC(C(=O)OCC(=O)O)C2)SC (stereo not drawn) [Example 17, 6.7-Dichloro-5-[3,3-bis(metbylthic)-2-propenoyl]-2,3-dibydro-1-benzofuran-2-carboxyacetic acid]",277※ %,970※ %,216※ %,285※ %,478※ %,144※ %,–,–,–
CC(C(=O)c1cc2c(c(Cl)c1Cl)OC(C(=O)O)C2)=C1OCCS1 (stereo not drawn) [Example 21],273※ %,704※ %,155※ %,178※ %,179※ %,104%,–,–,–
CSC(=CC(=O)c1cc2c(c(Cl)c1Cl)OC(C=O)C2)SC (stereo not drawn) [Example 28],260^※ %,905^※ %,222^※ %,–,–,–,–,–,–
"CNC(=S)CC(=O)c1cc2c(c(Cl)c1Cl)OC(C(=O)O)C2 (stereo not drawn) [Example 67, 6,7-dichloro-5-[[N-methyl(thiocarbamoyl)]-acbtyl]-2,3-dihydrobenzofuran-2-carbaxylic acid]",232^※ %,610^※ %,192^※ %,306^※ %,377^※ %,148^※ %,–,–,–
"O=C(C=C1NC=CS1)c1cc2c(c(Cl)c1Cl)OC(C(=O)O)C2 (stereo not drawn) [Example 70, 6,7-dichloro-5-((4-thiazolin-2-ylidene)acetyl]-2,3-dihydro-benzofuran-2-carboxylic acid]",178^※ %,410^※ %,144^※ %,374^※ %,459^※ %,154^※ %,–,–,–
C=C1CNC(=CC(=O)c2cc3c(c(Cl)c2Cl)OC(C(=O)O)C3)S1 (stereo not drawn) [Example 80],344^※ %,738^※ %,264^※ %,–,–,–,161^※ %,211^※ %,101%
"CSc1[nH]ccc1C(=O)c1cc2c(c(Cl)c1Cl)OC(C(=O)O)C2 (stereo not drawn) [Example 98, 6,7-dichloro-5-[2-(methylthio)pyrrol-3-yl-carbonyl]-2,3-dihydrobenzofuran-2-carboxylic acid]",292^※ %,810^※ %,222^※ %,–,–,–,254^※ %,445^※ %,157^※ %
